Assay results: patent publication US4775743A, “Peptide derivatives” (Green Cross Corporation, priority 1985, dated 1988)
Square brackets hold non-standard residues; d marks the D form. Ends that are not written are not given here. Peptide text beside a SMILES is read from it. * marks the point of attachment. Desaminotyrosyl = O=C(CCc1ccc(O)cc1)*; Hyp = O=C(O)[C@@H]1C[C@@H](O)CN1

Assays:
[1] = system: rat PRP (platelet-rich plasma) / rat washed platelets; assay: Platelet agglutination inhibitory action (in vitro); type: cell-based; settings: agglutination induced by arachidonic acid (1 mM), thrombin (0.8 U/ml) or Ca ionophore A-23187 (4 μM), FIGS. 1, 2 and 3
Experimental: Blood samples were taken from the abdominal artery of rats by means of a syringe containing 3.8% solution of sodium citrate, and the mixture (sodium citrate:blood=1:9) was centrifuged for ten minutes, giving platelet-rich plasma (PRP).
PRP thus collected was placed in cuvettes and kept in an incubator held at 37° C. for two minutes. Solutions of the compound obtained in Example 1 with different concentrations (diluted with a solution of 1.5 mM EDTA in a mixture of Tris-HCl buffer and sodium chloride solution (1:5)) were added, the resulting mixture in each cuvette was incubated for three minutes, and Ca ionophore A-23187 (final concentration: 4 μM), arachidonic acid (1 mM) or thrombin (0.8 U/ml) was added to measure the degree of agglutination. A solution of heparin sodium was used in place of sodium citrate when arachidonic acid was employed as agglutination inducer.

[2] = background statement on the prior-art compound; cited from earlier work

| Compound | strength of inhibitory effect against platelet agglutination relative to compound P (control) [1] | half-life in the blood [2] |
| --- | --- | --- |
| C[C@H](NC(=O)CNC(=O)[C@@H]1C[C@@H](O)CN1C(=O)[C@@H]1CCCN1C(=O)CCc1ccc(O)cc1)C(=O)NCC(=O)O [HP, N-3-(4-hydroxyphenyl)propionyl-L-prolyl-L-hydroxyprolyl-glycyl-L-alanyl-glycine] (Desaminotyrosyl-P[Hyp]GAG-OH) | about ten | – |
| P[Hyp]GAG [Compound P] | – | about ten |
